Experimental data reported in ChEMBL document CHEMBL4177587, “SIRT6 inhibitors with salicylate-like structure show immunosuppressive and chemosensitizing effects” (Bioorg Med Chem, 2017).
Active and inactive are the calls of the source. The rule behind the calls is not given here.

Key:
[1] = biological target: T1, NAD-dependent protein deacylase sirtuin-6 (Homo sapiens, UniProt Q8N6T7); assay: Inhibition of human recombinant SIRT6 assessed as reduction in NAD+-dependent deacetylase activity at 200 uM using Arg-His-Lys-Lys(epsilon-acetyl)-AMC substrate and NAD+ by fluorescence based assay
[2] = biological target: T1, NAD-dependent protein deacylase sirtuin-6; assay: Competitive inhibition of human recombinant SIRT6 assessed as reduction in NAD+-dependent deacetylase activity at 50 uM using varying Arg-His-Lys-Lys(epsilon-acetyl)-AMC substrate and fixed NAD+ by fluorescence based assay based double-reciprocal plot
[3] = biological target: T1, NAD-dependent protein deacylase sirtuin-6; assay: Inhibition of SIRT6 in human BxPC3 cells assessed as increase in H3K9 acetylation by immunoblotting relative to untreated control; type: cell-based; parameters: concentration or dose not given beside the values
[4] = biological target: T2, NAD-dependent protein deacetylase sirtuin-2 (Homo sapiens, UniProt Q8IXJ6); assay: Inhibition of human recombinant SIRT2 assessed as reduction in NAD+-dependent deacetylase activity using Arg-His-Lys-Lys(epsilon-acetyl)-AMC substrate and NAD+ by fluorescence based assay
T2 sequence (Q8IXJ6 whole entry): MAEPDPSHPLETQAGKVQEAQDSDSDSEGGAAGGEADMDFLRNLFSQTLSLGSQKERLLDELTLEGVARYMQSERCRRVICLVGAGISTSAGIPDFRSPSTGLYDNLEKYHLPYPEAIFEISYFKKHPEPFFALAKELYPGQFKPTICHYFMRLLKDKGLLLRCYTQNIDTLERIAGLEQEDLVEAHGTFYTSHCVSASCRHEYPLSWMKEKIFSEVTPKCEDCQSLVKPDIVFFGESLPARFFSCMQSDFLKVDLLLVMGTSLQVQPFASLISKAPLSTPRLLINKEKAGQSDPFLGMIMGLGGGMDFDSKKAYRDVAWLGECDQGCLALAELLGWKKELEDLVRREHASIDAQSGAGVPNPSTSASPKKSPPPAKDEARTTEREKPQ

[5] = biological target: T1, NAD-dependent protein deacylase sirtuin-6; assay: Inhibition of SIRT6 in human BxPC3 cells assessed as increase in 2-NBDG uptake at 100 uM incubated for 18 hrs by glucose uptake assay; type: cell-based
[6] = biological target: T1, NAD-dependent protein deacylase sirtuin-6; assay: Inhibition of SIRT6 in human PBMC cells assessed as increase in H3K56 acetylation at 200 uM incubated for 24 hrs by immunoblotting relative to untreated control; type: cell-based
[7] = biological target: T3, NAD-dependent protein deacetylase sirtuin-1 (Homo sapiens, UniProt Q96EB6); assay: Inhibition of human recombinant SIRT1 assessed as reduction in NAD+-dependent deacetylase activity using Arg-His-Lys-Lys(epsilon-acetyl)-AMC substrate and NAD+ by fluorescence based assay
T3 sequence (Q96EB6 whole entry): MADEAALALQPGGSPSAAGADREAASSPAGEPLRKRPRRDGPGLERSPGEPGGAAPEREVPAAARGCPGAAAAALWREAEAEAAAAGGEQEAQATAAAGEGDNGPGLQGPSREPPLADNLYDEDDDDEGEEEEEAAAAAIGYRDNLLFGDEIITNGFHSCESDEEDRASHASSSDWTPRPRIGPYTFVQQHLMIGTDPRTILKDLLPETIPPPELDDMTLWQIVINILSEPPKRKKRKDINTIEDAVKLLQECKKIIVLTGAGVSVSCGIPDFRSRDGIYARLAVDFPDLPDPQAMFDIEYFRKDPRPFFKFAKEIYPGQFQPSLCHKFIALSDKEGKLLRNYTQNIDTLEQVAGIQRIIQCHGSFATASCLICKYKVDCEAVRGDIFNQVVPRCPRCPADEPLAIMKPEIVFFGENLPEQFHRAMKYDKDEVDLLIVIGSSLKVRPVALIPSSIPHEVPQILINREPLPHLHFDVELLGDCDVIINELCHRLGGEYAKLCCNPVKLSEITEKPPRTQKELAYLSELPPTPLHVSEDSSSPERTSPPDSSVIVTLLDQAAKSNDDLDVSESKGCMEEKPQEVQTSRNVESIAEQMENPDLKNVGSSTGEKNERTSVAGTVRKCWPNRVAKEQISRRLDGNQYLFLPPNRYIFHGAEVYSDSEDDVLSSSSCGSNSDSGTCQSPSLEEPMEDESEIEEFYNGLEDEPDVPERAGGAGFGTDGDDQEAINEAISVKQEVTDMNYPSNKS

[8] = biological target: T1, NAD-dependent protein deacylase sirtuin-6; assay: Competitive inhibition of human recombinant SIRT6 assessed as reduction in NAD+-dependent deacetylase activity at 50 uM using fixed Arg-His-Lys-Lys(epsilon-acetyl)-AMC substrate and varying NAD+ by fluorescence based assay based double-reciprocal plot
[9] = biological target: T1, NAD-dependent protein deacylase sirtuin-6; assay: Inhibition of SIRT6 in human BxPC3 cells assessed as reduction in TNFalpha production at 100 uM incubated for 18 hrs by ELISA method; type: cell-based
[10] = biological target: T1, NAD-dependent protein deacylase sirtuin-6; assay: Inhibition of SIRT6 in human BxPC3 cells assessed as potentiation of gemcitabine-induced cytotoxicity at 30 uM incubated for 72 hrs by Cell-titer96 aqueous one assay; type: cell-based
[11] = biological target: T1, NAD-dependent protein deacylase sirtuin-6; assay: Inhibition of SIRT6 in human PBMC cells assessed as reduction in staphylococcal enterotoxin B-induced cell proliferation at 200 uM incubated for 120 hrs by ATPlite assay; type: cell-based
[12] = biological target: T1, NAD-dependent protein deacylase sirtuin-6; assay: Inhibition of SIRT6 in human PBMC cells assessed as reduction in PHA-induced cell proliferation at 200 uM incubated for 120 hrs by ATPlite assay; type: cell-based
[13] = biological target: T1, NAD-dependent protein deacylase sirtuin-6; assay: Inhibition of SIRT6 in human PBMC cells assessed as reduction in PHA-induced cell proliferation by measuring CFSE signal level at 200 uM incubated for 120 hrs by CFSE staining based flow FACS assay (reference value: 66%); parameters: scale not given: the % may be the effect or the level left
[14] = biological target: T1, NAD-dependent protein deacylase sirtuin-6; assay: Inhibition of SIRT6 in human PBMC cells assessed as reduction in staphylococcal enterotoxin B-induced cell proliferation by measuring CFSE signal level at 200 uM incubated for 120 hrs by CFSE staining based flow FACS assay (reference value: 65%); parameters: scale not given: the % may be the effect or the level left
[15] = biological target: T1, NAD-dependent protein deacylase sirtuin-6; assay: Inhibition of SIRT6 in human PBMC cells assessed as increase in H3K9 acetylation at 200 uM incubated for 24 hrs by immunoblotting relative to untreated control; type: cell-based
BXPC-3 = assay: Toxicity in human BxPC3 cells assessed as reduction in cell viability at 30 uM incubated for 72 hrs by Cell-titer96 aqueous one assay; type: cell-based; conditions: bxpc-3, 72 h
Homo sapiens [16] = species: Homo sapiens; assay: Selectivity index, ratio of IC50 for human recombinant SIRT1 to IC50 for human recombinant SIRT6
Homo sapiens [17] = species: Homo sapiens; assay: Selectivity index, ratio of IC50 for human recombinant SIRT2 to IC50 for human recombinant SIRT6

T1 sequence (Q8N6T7 whole entry): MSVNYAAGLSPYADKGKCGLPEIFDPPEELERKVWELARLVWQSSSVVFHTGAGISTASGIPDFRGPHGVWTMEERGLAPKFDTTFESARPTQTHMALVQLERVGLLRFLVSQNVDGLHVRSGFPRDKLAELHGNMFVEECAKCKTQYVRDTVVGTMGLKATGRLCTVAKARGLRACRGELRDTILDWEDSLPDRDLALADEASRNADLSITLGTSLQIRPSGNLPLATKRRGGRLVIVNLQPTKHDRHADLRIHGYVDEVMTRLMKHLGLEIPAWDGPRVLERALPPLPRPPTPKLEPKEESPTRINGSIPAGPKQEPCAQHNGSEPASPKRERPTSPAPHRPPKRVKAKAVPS

## CC(=O)Nc1cccc(NS(=O)(=O)c2cc(C(=O)O)c(O)cc2C)c1
[1]
  inhibition: inactive

## CC(=O)Nc1ccc(NS(=O)(=O)c2ccc(O)c(C(=O)O)c2)cc1
[1]
  inhibition: inactive

## Cc1cc(O)c(C(=O)O)cc1S(=O)(=O)Nc1ccc(NC(=O)NCC2CCCO2)cc1 (stereo unspecified)
[1]
  inhibition: 17%

## O=C(O)c1cccc(NC(=O)c2cccc(NC(=O)c3cccs3)c2)c1
[1]
  inhibition: 39%

## O=C(Nc1ccc(C(=O)O)c(O)c1)c1cccc(N2C(=O)CCS2(=O)=O)c1
[1]
  inhibition: 44%

## O=C(Nc1ccc(C(=O)O)c(O)c1)c1cccc(NC(=O)c2ccco2)c1
[1]
  inhibition: 62%

## O=C(Nc1ccc(O)c(C(=O)O)c1)c1ccc(NC(=O)C2CC2)cc1
[1]
  inhibition: 50%

## O=C(Nc1ccc(C(=O)O)c(O)c1)c1ccc(NC(=O)c2ccco2)cc1
[2]
  inhibition: Active
[3]
  fold change (FC): 2.5
[4]
  IC50: 482 µM
[5]
  fold change (FC): 1.7
[6]
  inhibition: Active
[7]
  IC50: 599 µM
[8]
  inhibition: Active
[9]
  inhibition: 80%
[10]
  inhibition: Active
[1]
  inhibition: 100%
[11]
  inhibition: Active
[12]
  inhibition: Active
[13]
  Activity: 29%
[14]
  Activity: 27%
[15]
  inhibition: Active
BXPC-3
  Activity: Non-Toxic

## O=C(O)c1cccc(NC(=O)c2cccc(NC(=O)C3CCCO3)c2)c1 (stereo unspecified)
[1]
  inhibition: inactive

## Cc1ccc(C(=O)O)cc1NC(=O)c1cccc(NC(=O)c2ccco2)c1
[1]
  inhibition: 4%

## O=C(Nc1ccc(O)c(C(=O)O)c1)c1cccc(NC(=O)c2ccco2)c1
[3]
  fold change (FC): 2.1
[5]
  fold change (FC): 1.3
Homo sapiens [16]
  Ratio IC50: 17.7
[9]
  inhibition: 52%
Homo sapiens [17]
  Ratio IC50: 8.44

## O=C(Nc1ccc(O)c(C(=O)O)c1)c1ccc(N2C(=O)CCS2(=O)=O)cc1
[1]
  inhibition: 89%
